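Briefly, cells in 96-well plates were exposed to five compound concentrations for 48 h, and endpoints were estimated by linear interpolation. GI50: concentration for 50% inhibition of growth.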 Active and inactive are the calls of the source. No stated cut-off is given here; in the data, active = GI50 up to about 1.1 µM and inactive = higher.
Assays:
Experiment in all cases: inhibition of tumour cell growth, NCI panel, 48 h
M14 = test system: M14
A498 = test system: A498
UACC-257 = test system: UACC-257
OVCAR-3 = test system: OVCAR-3
SNB-19 = test system: SNB-19
NCI-H23 = test system: NCI-H23
SF-539 = test system: SF-539
SW-620 = test system: SW-620
UO-31 = test system: UO-31
NCI-H226 = test system: NCI-H226
EKVX = test system: EKVX
A549 = test system: A549
OVCAR-5 = test system: OVCAR-5
U-251 = test system: U-251
Malme-3M = test system: Malme-3M
TK-10 = test system: TK-10
HCT-15 = test system: HCT-15
SF-268 = test system: SF-268

| Structure (SMILES) | GI50 (M14) | GI50 (A498) | GI50 (UACC-257) | GI50 (OVCAR-3) | GI50 (SNB-19) | GI50 (NCI-H23) | GI50 (SF-539) | GI50 (SW-620) | GI50 (UO-31) | GI50 (NCI-H226) | GI50 (EKVX) | GI50 (A549) | GI50 (OVCAR-5) | GI50 (U-251) | GI50 (Malme-3M) | GI50 (TK-10) | GI50 (HCT-15) | GI50 (SF-268) |
| --- | --- | --- | --- | --- | --- | --- | --- | --- | --- | --- | --- | --- | --- | --- | --- | --- | --- | --- |
| CC12CC3CC(C1)CC(N=[N+]=[N-])(C3)C2 | > 100 µM (inactive) | > 100 µM (inactive) | > 100 µM (inactive) | > 100 µM (inactive) | > 100 µM (inactive) | > 100 µM (inactive) | > 100 µM (inactive) | > 100 µM (inactive) | > 100 µM (inactive) | > 100 µM (inactive) | > 100 µM (inactive) | > 100 µM (inactive) | > 100 µM (inactive) | > 100 µM (inactive) | > 100 µM (inactive) | > 100 µM (inactive) | – | – |
| N#CC1C(=O)C(=O)N(c2ccccc2)C1=O (configuration not stated) | > 100 µM (inactive) | > 100 µM (inactive) | > 100 µM (inactive) | > 100 µM (inactive) | > 100 µM (inactive) | > 100 µM (inactive) | > 100 µM (inactive) | > 100 µM (inactive) | > 100 µM (inactive) | > 100 µM (inactive) | > 100 µM (inactive) | – | > 100 µM (inactive) | > 100 µM (inactive) | > 100 µM (inactive) | > 100 µM (inactive) | > 100 µM | > 100 µM (inactive) |
| Clc1ccccc1C(n1ncc2ccccc21)n1ncc2ccccc21 | 31 µM (inactive) | 35.6 µM (inactive) | 40.8 µM (inactive) | 80.4 µM (inactive) | 57.5 µM (inactive) | 24 µM (inactive) | 56.9 µM (inactive) | 29.7 µM (inactive) | 31.3 µM (inactive) | 33.7 µM (inactive) | – | – | 37.7 µM (inactive) | 35.8 µM (inactive) | 33.9 µM (inactive) | 99.8 µM (inactive) | 38.3 µM | 99.3 µM (inactive) |
| COc1ccc(C(c2ccc(C(C)C)cc(=O)c2O)c2ccc3cccnc3c2O)cc1 (configuration not stated) | 0.933 µM (active) | – | – | 1.24 µM (inactive) | – | 0.349 µM (active) | 0.357 µM (active) | 3.68 µM (inactive) | 0.421 µM (active) | 0.991 µM (active) | 1.27 µM (inactive) | 0.328 µM (active) | 1.58 µM (inactive) | 0.438 µM (active) | 0.398 µM (active) | – | 0.449 µM | 0.399 µM (active) |
| O=C1C(=C2CCCC2)CCC1CN1CCCCC1 (configuration not stated) | 15.7 µM (inactive) | 19.4 µM (inactive) | 19.4 µM (inactive) | 16.9 µM (inactive) | > 100 µM (inactive) | 18.7 µM (inactive) | 21 µM (inactive) | 16.4 µM (inactive) | > 100 µM (inactive) | – | 18.8 µM (inactive) | > 100 µM (inactive) | 19.8 µM (inactive) | > 100 µM (inactive) | 16.3 µM (inactive) | 14.1 µM (inactive) | 16.3 µM | 19.5 µM (inactive) |
| Clc1cc2nsnc2c(Cl)n1 | 15.2 µM (inactive) | > 100 µM (inactive) | 26.7 µM (inactive) | 17.9 µM (inactive) | 19 µM (inactive) | 19.1 µM (inactive) | 22.9 µM (inactive) | 10.2 µM (inactive) | 20.6 µM (inactive) | 20.6 µM (inactive) | > 100 µM (inactive) | 50 µM (inactive) | 43 µM (inactive) | 20.3 µM (inactive) | 16.3 µM (inactive) | 20.9 µM (inactive) | 21.3 µM | 26.4 µM (inactive) |
| NC1C(O)C(O)C(CO)OC1n1cc(F)c(=O)[nH]c1=O (configuration not stated) | – | – | > 100 µM (inactive) | – | > 100 µM (inactive) | > 100 µM (inactive) | – | > 100 µM (inactive) | – | > 100 µM (inactive) | – | > 100 µM (inactive) | > 100 µM (inactive) | > 100 µM (inactive) | > 100 µM (inactive) | > 100 µM (inactive) | > 100 µM | > 100 µM (inactive) |
| CN1Cc2cc3c(cc2-c2ccccc21)OCO3 | > 100 µM (inactive) | > 100 µM (inactive) | > 100 µM (inactive) | > 100 µM (inactive) | > 100 µM (inactive) | > 100 µM (inactive) | > 100 µM (inactive) | > 100 µM (inactive) | > 100 µM (inactive) | – | > 100 µM (inactive) | > 100 µM (inactive) | > 100 µM (inactive) | > 100 µM (inactive) | – | > 100 µM (inactive) | – | > 100 µM (inactive) |
| Cc1cc(N(CCC#N)CCC#N)ccc1/C=C(\NC(=O)/C=C/c1ccccc1)C(=O)Nc1ccccc1Cl | > 100 µM (inactive) | > 100 µM (inactive) | > 100 µM (inactive) | > 100 µM (inactive) | > 100 µM (inactive) | > 100 µM (inactive) | > 100 µM (inactive) | > 100 µM (inactive) | > 100 µM (inactive) | > 100 µM (inactive) | > 100 µM (inactive) | > 100 µM (inactive) | > 100 µM (inactive) | 59.6 µM (inactive) | > 100 µM (inactive) | – | > 100 µM | > 100 µM (inactive) |
| OCCN1CCN(CCO)Cc2ccccc2OCCOc2ccccc2C1 | > 100 µM (inactive) | > 100 µM (inactive) | > 100 µM (inactive) | > 100 µM (inactive) | > 100 µM (inactive) | > 100 µM (inactive) | > 100 µM (inactive) | > 100 µM (inactive) | > 100 µM (inactive) | > 100 µM (inactive) | > 100 µM (inactive) | > 100 µM (inactive) | > 100 µM (inactive) | > 100 µM (inactive) | > 100 µM (inactive) | > 100 µM (inactive) | > 100 µM | > 100 µM (inactive) |
| COc1ccc(N(CC(=O)O)S(=O)(=O)c2ccccc2)cc1 | > 100 µM (inactive) | > 100 µM (inactive) | > 100 µM (inactive) | > 100 µM (inactive) | > 100 µM (inactive) | > 100 µM (inactive) | > 100 µM (inactive) | > 100 µM (inactive) | > 100 µM (inactive) | > 100 µM (inactive) | > 100 µM (inactive) | > 100 µM (inactive) | > 100 µM (inactive) | > 100 µM (inactive) | > 100 µM (inactive) | > 100 µM (inactive) | > 100 µM | – |
| COC(=O)C1Cc2c([nH]c3ccccc23)C=N1 (configuration not stated) | > 100 µM (inactive) | > 100 µM (inactive) | > 100 µM (inactive) | > 100 µM (inactive) | > 100 µM (inactive) | > 100 µM (inactive) | > 100 µM (inactive) | > 100 µM (inactive) | > 100 µM (inactive) | > 100 µM (inactive) | > 100 µM (inactive) | > 100 µM (inactive) | > 100 µM (inactive) | > 100 µM (inactive) | > 100 µM (inactive) | 59.3 µM (inactive) | > 100 µM | > 100 µM (inactive) |
| C=CC1(C)CCC2=C(CCC3C(C)(C(=O)OC)CCCC23C)C1=O (configuration not stated) | 20.8 µM (inactive) | 14.8 µM (inactive) | 22.8 µM (inactive) | 19.7 µM (inactive) | 38.4 µM (inactive) | 19.5 µM (inactive) | – | 17.6 µM (inactive) | 20.8 µM (inactive) | 23.8 µM (inactive) | 18.7 µM (inactive) | – | 16 µM (inactive) | 15.6 µM (inactive) | 17.9 µM (inactive) | 19.9 µM (inactive) | 20.6 µM | 18.7 µM (inactive) |
| COc1cc(-c2cc(O)c3cc4c(cc3n2)OCO4)cc(OC)c1OC | > 100 µM (inactive) | – | – | – | 40.3 µM (inactive) | 56.2 µM (inactive) | 54.8 µM (inactive) | > 100 µM (inactive) | > 100 µM (inactive) | – | > 100 µM (inactive) | > 100 µM (inactive) | – | 60 µM (inactive) | > 100 µM (inactive) | > 100 µM (inactive) | > 100 µM | – |
| COC(=O)c1sc(=O)n(-c2ccccc2)c1SCc1ccccc1 | > 100 µM (inactive) | – | > 100 µM (inactive) | > 100 µM (inactive) | > 100 µM (inactive) | > 100 µM (inactive) | > 100 µM (inactive) | > 100 µM (inactive) | > 100 µM (inactive) | > 100 µM (inactive) | > 100 µM (inactive) | > 100 µM (inactive) | > 100 µM (inactive) | > 100 µM (inactive) | > 100 µM (inactive) | > 100 µM (inactive) | > 100 µM | – |
| CCOC(=O)CSC(=O)NCCCl | > 100 µM (inactive) | > 100 µM (inactive) | > 100 µM (inactive) | > 100 µM (inactive) | > 100 µM (inactive) | > 100 µM (inactive) | > 100 µM (inactive) | > 100 µM (inactive) | > 100 µM (inactive) | > 100 µM (inactive) | > 100 µM (inactive) | > 100 µM (inactive) | > 100 µM (inactive) | > 100 µM (inactive) | > 100 µM (inactive) | > 100 µM (inactive) | > 100 µM | > 100 µM (inactive) |
| O=C(CCc1ccccc1)CC1OC(=O)C(Cl)=C1Cl (configuration not stated) | 16.5 µM (inactive) | 34 µM (inactive) | 21.3 µM (inactive) | 20.3 µM (inactive) | 20.9 µM (inactive) | 19.1 µM (inactive) | 31 µM (inactive) | 12.1 µM (inactive) | 19.3 µM (inactive) | – | 38.9 µM (inactive) | 43.4 µM (inactive) | 20 µM (inactive) | 16.4 µM (inactive) | 18.2 µM (inactive) | 33.4 µM (inactive) | 16 µM | 27.5 µM (inactive) |
| COc1ccc(C(=O)C(C(=O)C(=O)NC2C3CC4CC(C3)CC2C4)c2ccc(OC)cc2)cc1 (configuration not stated) | > 100 µM (inactive) | > 100 µM (inactive) | > 100 µM (inactive) | > 100 µM (inactive) | > 100 µM (inactive) | > 100 µM (inactive) | > 100 µM (inactive) | > 100 µM (inactive) | > 100 µM (inactive) | > 100 µM (inactive) | > 100 µM (inactive) | > 100 µM (inactive) | > 100 µM (inactive) | > 100 µM (inactive) | > 100 µM (inactive) | > 100 µM (inactive) | > 100 µM | > 100 µM (inactive) |

From ChEMBL document CHEMBL1201862, “PubChem BioAssay data set” (2004)
